# Patent publication US20160058705A1 (priority 2014, published 2016)
# “Also recorded” adds a separate entry of the source.
# Columns and labels:
# [1] = test system: TAC-induced cardiac hypertrophy; assay: Echocardiography in mouse model of TAC (pressure overload-induced cardiac hypertrophy); assay type: in vivo; conditions: TAC mice, 300 μg/kg IP at days 1 and 7; compared with TAC controls
# Description: (§1) All procedures involving animal use, housing, and surgeries were approved by the Stanford Institutional Animal Care and Use Committee (IACUC). Animal care and interventions were provided in accordance with the Laboratory Animal Welfare Act.
# (§2) For constriction of transverse thoracic aorta (DeAlmeida et al. (2010) J. Vis. Exp. April 21(38) pii:172), mice were anesthetized using an isoflurane inhalational chamber, followed by endotracheal intubation using a 22-gauge angiocatheter (Becton, Dickinson Inc., Sandy, Utah) connected to a small animal ventilator (Harvard Apparatus, Holliston, Mass.). A left thoracotomy was performed via the fourth intercostal space, the transverse aorta was identified, and a 6.0 silk suture was placed between the innominate and left carotid arteries. The suture was tightened around a 271/2 gauge blunt needle, placed parallel to the aorta (FIG. 1B) to induce a constriction of ˜0.4 mm in diameter. In sham control mice, an identical procedure was conducted, except for the constriction of the aorta.
# In vivo heart function was evaluated by echocardiography at 1 day prior to surgery (baseline) and on days 1, 7, and 14 post-surgery (FIG. 1A). […] Fractional shortening (FS), LV internal diameter at end diastole (LVIDd) and systole (LVIDs), and posterior LV wall thickness at end diastole (LVPWd) were measured. […]
# [2] = test system: TAC-induced cardiac hypertrophy; assay: Histology (Masson's trichrome) of heart sections two weeks post injury; assay type: in vivo, mouse; conditions: TAC mice
# Description: as §1, §2
# Histological analysis was performed following standard protocols for paraffin embedding. Mounted heart samples were stained for Masson's trichrome (TC, to label muscle fibers in red, collagen in blue, cytoplasm in pink, and nuclei in dark brown). A minimum of 4 sections per sample were used.
substance,measurement,setting,value
pyroglutamyl apelin-13 [[Pyr1]-apelin-13],hypertrophic response / cardiac remodeling and dysfunction due to pressure overload,[1],more modest effect; also recorded: slight inhibition of cardiac remodeling and increase in FS
same,size of LV and extent of cardiac fibrosis (trichrome histology),[2],remarkable inhibition of the LV growth
